Experimental data as given in patent US20030144345A1, “Treatment of metabolic diseases with soraphen derivatives” (priority 2001, published 2003).
Like-named read-outs stand apart in the source and are kept apart here.

How the values were obtained:
[1] = molecular target: T1, human ACCβ enzyme (Homo sapiens, UniProt O00763); assay: Human ACCβ enzyme activity / inhibition assay (radiometric); assay type: biochemical; settings: for IC50: purified recombinant human ACCβ, saturating substrate concentrations, read-out: IC50 against purified ACCβ enzyme; for Effect on K0.5 of K-citrate / Effect on Vmax of the ACC enzyme reaction: titration of compound at 0.5, 1 and 2 times IC50
T1 construct: The cloning of the full length human muscle-type ACCβ cDNA and expression in HEK293 cells; made in house; host or cells: HEK293 cells (ATCC CRL-1573), plasmid pRF33D
T1 sequence (O00763 whole entry): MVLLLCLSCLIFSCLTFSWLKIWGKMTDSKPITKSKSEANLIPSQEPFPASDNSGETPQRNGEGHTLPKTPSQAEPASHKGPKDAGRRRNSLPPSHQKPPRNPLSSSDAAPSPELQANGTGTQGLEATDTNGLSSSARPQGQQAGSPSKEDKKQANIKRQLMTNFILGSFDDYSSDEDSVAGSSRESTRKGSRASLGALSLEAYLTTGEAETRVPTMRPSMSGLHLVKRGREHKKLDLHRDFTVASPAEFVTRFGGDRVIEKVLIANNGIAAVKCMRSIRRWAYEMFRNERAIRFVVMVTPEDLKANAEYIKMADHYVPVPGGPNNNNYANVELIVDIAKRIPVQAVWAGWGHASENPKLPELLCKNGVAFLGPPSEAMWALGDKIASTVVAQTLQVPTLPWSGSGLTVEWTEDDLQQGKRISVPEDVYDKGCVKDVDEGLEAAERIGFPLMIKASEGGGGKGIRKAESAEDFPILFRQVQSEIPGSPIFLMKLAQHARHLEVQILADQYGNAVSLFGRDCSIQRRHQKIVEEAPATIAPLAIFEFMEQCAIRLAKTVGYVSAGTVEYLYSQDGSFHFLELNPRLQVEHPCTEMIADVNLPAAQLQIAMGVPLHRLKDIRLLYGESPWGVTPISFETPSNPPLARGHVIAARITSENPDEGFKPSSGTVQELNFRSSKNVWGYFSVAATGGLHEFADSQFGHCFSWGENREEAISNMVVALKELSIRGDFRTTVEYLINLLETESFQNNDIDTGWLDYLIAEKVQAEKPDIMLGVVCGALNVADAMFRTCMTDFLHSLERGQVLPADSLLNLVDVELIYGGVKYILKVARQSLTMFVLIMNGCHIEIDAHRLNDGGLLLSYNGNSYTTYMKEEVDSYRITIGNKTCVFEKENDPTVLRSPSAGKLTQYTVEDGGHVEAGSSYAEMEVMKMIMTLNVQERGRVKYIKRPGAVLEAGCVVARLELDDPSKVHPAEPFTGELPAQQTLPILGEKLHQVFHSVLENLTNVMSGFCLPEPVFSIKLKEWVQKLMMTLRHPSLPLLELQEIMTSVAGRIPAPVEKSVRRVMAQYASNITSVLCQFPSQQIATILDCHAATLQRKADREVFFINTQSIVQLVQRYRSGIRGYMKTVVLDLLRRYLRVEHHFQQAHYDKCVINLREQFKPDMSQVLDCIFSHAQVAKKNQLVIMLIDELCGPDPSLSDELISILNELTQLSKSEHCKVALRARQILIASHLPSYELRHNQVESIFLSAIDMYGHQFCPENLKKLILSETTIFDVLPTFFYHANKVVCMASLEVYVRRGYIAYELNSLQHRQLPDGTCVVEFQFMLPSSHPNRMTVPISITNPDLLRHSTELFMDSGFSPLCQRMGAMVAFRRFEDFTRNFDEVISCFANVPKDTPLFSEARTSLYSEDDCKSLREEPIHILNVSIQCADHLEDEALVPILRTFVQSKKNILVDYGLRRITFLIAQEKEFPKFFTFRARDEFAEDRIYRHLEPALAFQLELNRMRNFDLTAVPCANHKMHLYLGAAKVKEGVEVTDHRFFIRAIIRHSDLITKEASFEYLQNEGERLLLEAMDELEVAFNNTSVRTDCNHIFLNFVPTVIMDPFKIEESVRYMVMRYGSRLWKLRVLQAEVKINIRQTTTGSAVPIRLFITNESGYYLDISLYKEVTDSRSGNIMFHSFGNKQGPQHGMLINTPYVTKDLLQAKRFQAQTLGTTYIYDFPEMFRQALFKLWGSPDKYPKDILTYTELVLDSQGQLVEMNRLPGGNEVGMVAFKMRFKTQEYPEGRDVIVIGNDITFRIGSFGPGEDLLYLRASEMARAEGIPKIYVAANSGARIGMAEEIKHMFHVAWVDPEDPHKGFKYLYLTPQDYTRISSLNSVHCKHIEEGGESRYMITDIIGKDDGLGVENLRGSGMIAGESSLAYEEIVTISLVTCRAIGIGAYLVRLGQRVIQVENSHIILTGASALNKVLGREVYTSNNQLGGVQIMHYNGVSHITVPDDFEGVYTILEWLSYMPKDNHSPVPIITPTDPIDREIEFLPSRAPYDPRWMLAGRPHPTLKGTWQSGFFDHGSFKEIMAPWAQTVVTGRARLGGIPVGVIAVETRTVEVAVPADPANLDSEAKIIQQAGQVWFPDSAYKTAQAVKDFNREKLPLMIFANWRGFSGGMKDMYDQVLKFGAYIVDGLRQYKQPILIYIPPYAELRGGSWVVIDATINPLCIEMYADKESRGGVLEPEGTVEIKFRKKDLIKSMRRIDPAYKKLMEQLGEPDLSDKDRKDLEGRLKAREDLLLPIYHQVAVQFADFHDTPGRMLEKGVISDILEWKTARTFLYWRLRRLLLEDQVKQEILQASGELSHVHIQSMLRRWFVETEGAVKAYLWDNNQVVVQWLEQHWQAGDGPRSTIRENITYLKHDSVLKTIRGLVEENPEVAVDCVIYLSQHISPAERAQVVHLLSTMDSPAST
Method: The cloning of the full length human muscle-type ACCβ cDNA and expression in HEK293 cells (ATCC, #CRL-1573) was performed as follows. The ACCβ cDNA was amplified by the polymerase chain reaction (PCR) and was cloned using standard recombinant DNA techniques. The PCR reaction was performed with the Expand Long Template PCR System (Roche Molecular Biochemicals, #1 681 8340) and 0.5 ng of cDNA from human skeletal muscle as template. The primers used for PCR amplification were designed on the basis of the published sequence of the human ACCβ cDNA isolated from a human liver cDNA library (Abul-Elheiga et al. J. Biol Chem. 272, 10669-10677, 1997). The sequence of the forward primer ACCB1 was 5′-[…]-3′; it includes a NheI restriction cleavage site for subcloning and a Kozak translation initiation consensus sequence preceding the ATG start codon. The sequence of the reverse primer ACCB8 was 5′-[…]-3′; it includes a stop codon and a XhoI restriction cleavage site for subcloning. The amplified DNA fragment of approximately 7.4 kb was cloned into a mammalian expression vector. The resulting plasmid isolates, pRF33A, B, C, D, and E were individually transfected in human embryonic kidney 293 cells (HEK293) using a standard lipid transfection method. Cell extracts of transfected cells were prepared in a lysis buffer containing 0.4 mg/ml digitonin and enzyme activity was determined using a radiometric ACC activity assay as described below. Plasmid pRF33D gave the highest activity and was chosen for large scale transfections of HEK293 cells and enzyme purification.
Since ACC enzyme activities in crude cell lysates were very low, enrichment of ACCβ enzyme expressed in HEK293 cells was achieved by a single anion exchange chromatography step. Cell lysates were run over a 5 ml Econo Pac High Q column (Bio-Rad, #732-0027). Bound proteins were eluted by a gradient of NaCl from 0 to 1 M in 50 mM Tris-HCl, pH 7.5, 1 mM DTT, 5% glycerol. Fractions containing high ACCβ enzyme activity were pooled and stored at −20° C.
Standard ACCβ enzyme assays, in a total volume of 100 μl, contained 50 mM HEPES-KOH, pH 7.5, 10 mM K-citrate, 10 mM MgSO4, 1 mM ATP, 0.1 mM DTT, 2% DMSO, 0.1 mg/ml fatty acid-free BSA, 0.2 mM acetyl-CoA, 2 mM KHCO3, 0.2 mM [^14C]NaHCO3 (50-60 mCi/mmol) and cell lysate or purified ACCβ enzyme. Reactions were incubated at 37° C. for 45 min. and stopped by the addition of 50 μl of 2 N HCl. Terminated reactions were incubated at 50° C. over night to evaporate non-incorporated [^14C]NaHCO3. [^14C]-labeled malonyl-CoA reaction product was quantitated by liquid scintillation counting after the addition of 20 μl of Microscint 20 (Canberra Packard, #6013621) on a TopCount NXT microplate scintillation counter (Canberra Packard).
Inhibition of ACCβ activity was determined at saturating substrate concentrations with two-fold serial dilutions of test compounds spanning a concentration range of at least two log units. IC50 values were calculated with the GraFit software (Erithacus Software Ltd.). Kinetic parameters (Km, Vmax and K0.5) were determined by varying one substrate (or allosteric effector) in a two-fold serial dilution over a concentration range of at least two log units while keeping all other substrates at constant saturating concentrations. Fitting to the Michaelis-Menten equation (for calculation of Km of substrates) and fitting to the Hill equation (for calculation of K0.5of the allosteric activator K-citrate) was done with the GraFit software. To determine the mode of action of Soraphens, determinations of Km for ATP and acetyl-CoA and of K0.5 for K-citrate were repeated in the absence and in the presence of the three different Soraphens at 0.5, 1 and 2 times their IC50 and the data were fitted to the equation for non-competitive inhibition with the GraFit software.

[2] = test system: HepG2 cells; assay: Fatty acid (palmitate) oxidation assay with human liver hepatoma cells HepG2; assay type: cell-based; settings: for Stimulation of palmitate / fatty acid oxidation (in words): HepG2
Method: For routine passaging, HepG2 cells (American Type Culture Collection, ATCC) were grown in T75 flasks (Falcon, #353136) in 15 ml of Dulbecco's modified Eagle medium (DMEM, Sigma, #D5796), containing 10% heat inactivated fetal bovine serum (FBS, Summit Biotechnology, #S-100-05) and 1% Penicillin/Streptomycin (Sigma, #P4333). […] The cells were passaged once per week by trypsinization and an additional change of medium was done after 3 to 4 days after passaging.

[3] = test system: differentiated L6 cells;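 note: differentiated rat L6 myotubes fed [14C]-palmitate, with oxidation read as 14CO2 trapped on filters and counted by liquid scintillation after 3 to 8 h at 37 °C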
Method: (§1) Labeling medium to assay oxidation of fatty acids was composed of glucose-deficient DMEM containing 3.7 g/l NaHCO3, 25 mM HEPES-NaOH, 0.5% fatty acid-free bovine serum albumin (BSA), 0.1% ethanol, 0.5% DMSO (or test compounds dissolved in DMSO), 5 mM D-glucose, and 16 μM unlabeled palmitate plus 0.25 μM [U-^14C]palmitate (approx. 800 mCi/mmol). After the addition of labeling medium, the cell culture plates were sealed air tight with self adhesive Super Sealing Film (Life Systems Design, #02-2796-3001). Before sealing, twelve 1 cm^2 squares of filter paper (Schleicher & Schuell, #GB004) pretreated with 50 μl of highly basic tissue solubilizer solution NCSII (Amersham Pharmacia, #NNCS-502) were attached to the lower side of the sealing film. Upon sealing of the tissue culture plates, the filters were positioned in the center above each well, and served to capture the evolving ^14CO2 that was produced by the cells in each individual well. After an incubation between 3 to 8 hours at 37° C., the filters were removed from the sealing film and the captured ^14CO2 was quantitated by liquid scintillation counting with 2 ml of scintillation cocktail BCS-NA (Amersham Pharmacia, #NBCS204) in a Tri-Carb liquid scintillation counter (Canberra Packard).
(§2) Cultivation of the differentiating rat muscle cell line L6 for fatty acid oxidation assays was performed as follows. For routine passaging, L6 cells (ATCC) were grown in T75 flasks in 15 ml of MEM Alpha medium (Gibco BRL Life Technologies, #22571-038), containing 10% heat inactivated FBS and 1% antibiotic/antimycotic solution (Gibco BRL Life Technologies, #15240-062). Incubation was done at 37° C. in a humid atmosphere containing 5% CO2. The cells were passaged twice per week by trypsinization.
(§3) For fatty acid oxidation assays, each well of a 12-well tissue culture plate was seeded with 2 to 5×10^4 cells in 1 ml of MEM Alpha, 10% FBS, 1% antibiotic/antimycotic solution. After 3 days, medium was exchanged by 1 ml of the same, fresh medium. After 5 days, medium was exchanged again, this time by 1 ml of medium containing 2% FBS, 1% antibiotic/antimycotic solution. After 7 days, the cells were fully differentiated and formed large multinucleated myotubes. At this stage, the medium was replaced by 1 ml of glucose-deficient DMEM supplemented with 3.7 g/l NaHCO3 and 25 mM HEPES-NaOH followed by a starvation period of 2 to 6 hours at 37° C. […] The compounds were tested at three different concentrations (2, 0.2 and 0.02 μM) on differentiated L6 cells.

[4] = test system: differentiated L6 cells; assay: Fatty acid (palmitate) oxidation assay with differentiated rat L6 muscle cells;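 note: differentiated rat L6 myotubes fed [14C]-palmitate, with oxidation read as 14CO2 trapped on filters and counted by liquid scintillation after 3 to 8 h at 37 °C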
Method: as §1, §2, §3

SMILES | IC50 [1] | Effect on K0.5 of K-citrate [1] | Effect on Vmax of the ACC enzyme reaction [1] | Fold stimulation over palmitate oxidation rate in the absence of test compounds ([2]; HepG2, 10 μM) | Palmitate oxidation rate ([2]; HepG2, 10 μM) | Stimulation of palmitate / fatty acid oxidation (in words) [2] | Fold stimulation over palmitate oxidation rate in the absence of test compounds ([2]; HepG2, 25 μM) | Palmitate oxidation rate ([2]; HepG2, 25 μM) | further results
CO[C@@H]1[C@@H](O)[C@H](C)[C@H]2OC1(O)[C@H](C)C(=O)O[C@H](c1ccccc1)CCCC[C@H](O)[C@H](O)/C=C/[C@@H]2C [Cpd (Ib), Soraphen A 4-α] | 200 nM | did not change | dose-dependent decrease | 2.8 fold | 10.8 +/− 0.4 pmol · h^−1 · well^−1 | – | – | – | Fold stimulation ([3]; L6, Table 2, 0.02 μM): 1.0 fold; Palmitate oxidation rate ([3]; L6, Table 2, 0.02 μM): 8.8 +/− 0.3 pmol · h^−1 · well^−1; Fold stimulation ([3]; L6, Table 2, 0.2 μM): 1.1 fold; Palmitate oxidation rate ([3]; L6, Table 2, 0.2 μM): 10.0 +/− 1.4 pmol · h^−1 · well^−1; Fold stimulation ([3]; L6, Table 2, 2 μM): 1.5 fold; Palmitate oxidation rate ([3]; L6, Table 2, 2 μM): 13.5 +/− 1.4 pmol · h^−1 · well^−1
CO[C@H]1CC(O)CC[C@@H](c2ccccc2)OC(=O)[C@@H](C)C2(O)O[C@H]([C@@H](C)[C@H](O)[C@H]2OC)[C@@H](C)/C=C/[C@H]1O (stereo partly drawn) [Cpd (Ic), Soraphen B 2-α] | 1750 nM | did not change | dose-dependent decrease | 1.6 fold | 6.1 +/− 0.4 pmol · h^−1 · well^−1 | – | – | – | Fold stimulation ([4]; L6, Table 2, 0.02 μM): 0.9 fold; Palmitate oxidation rate ([4]; L6, Table 2, 0.02 μM): 8.2 +/− 0.5 pmol · h^−1 · well^−1; Fold stimulation ([4]; L6, Table 2, 0.2 μM): 1.0 fold; Palmitate oxidation rate ([4]; L6, Table 2, 0.2 μM): 8.8 +/− 0.5 pmol · h^−1 · well^−1; Fold stimulation ([4]; L6, Table 2, 2 μM): 1.1 fold; Palmitate oxidation rate ([4]; L6, Table 2, 2 μM): 10.2 +/− 1.3 pmol · h^−1 · well^−1
CCCC(=NOCC)C1=C(O)CC(C2CCCSC2)CC1=O (stereo not shown) [Cycloxidim, 2-(1-Ethoxyimino-butyl)-3-hydroxy-5-(tetrahydro-thiopyran-3-yl)-cyclohex-2-enone] | – | – | – | – | – | did not stimulate | 0.9 fold | 3.5 +/− 0.2 pmol · h^−1 · well^−1 | –
CC(Oc1ccc(Oc2ccc(Cl)cc2Cl)cc1)C(=O)O (stereo not shown) [Diclofop, 2-[p-(2,4-Dichlorophenoxy)phenoxy]propionic acid] | – | – | – | – | – | did not stimulate | 0.8 fold | 3.1 +/− 1.3 pmol · h^−1 · well^−1 | –
CC(Oc1ccc(Oc2ncc(C(F)(F)F)cc2Cl)cc1)C(=O)O (stereo not shown) [Haloxyfop, 2-[4-(3-chloro-5-trifluormethyl-2-pyridinyloxy)phenoxy] propionic acid] | – | – | – | – | – | did not stimulate | 1.0 fold | 3.6 +/− 0.4 pmol · h^−1 · well^−1 | –
CCCCCCCCCCCCCCOc1ccc(C(=O)O)o1 [TOFA, 5-(Tetradecyloxy)-2-furoic acid, reference compound] | – | – | – | – | – | – | 2.1 fold | 8.1 +/− 0.7 pmol · h^−1 · well^−1 | Fold stimulation ([4]; L6, Table 3, 0.25 μM): 1.1 fold; Palmitate oxidation rate ([4]; L6, Table 3, 0.25 μM): 5.8 +/− 0.4 pmol · h^−1 · well^−1; Fold stimulation ([4]; L6, Table 3, 2.5 μM): 1.5 fold; Palmitate oxidation rate ([4]; L6, Table 3, 2.5 μM): 8.0 +/− 0.7 pmol · h^−1 · well^−1; Fold stimulation ([4]; L6, Table 3, 25 μM): 1.3 fold; Palmitate oxidation rate ([4]; L6, Table 3, 25 μM): 7.2 +/− 0.3 pmol · h^−1 · well^−1; Maximal stimulation of palmitate oxidation ([4]; differentiated L6 cells, up to 25 μM): 1.5 fold
